Measurements published in patent publication US20220267390A1, “MPS MODIFIED PEPTIDES AND USE THEREOF” (The Regents of the University of California, priority 2019, published 2022).
Where no end group is shown, it is not given here.

Legend:
[1] = Kinetic assay: biolayer interferometry binding to biotin-labeled PIP2; conditions: 24° C., read-out: dissociation constant
Text: FIGS. 10A-10C: (FIG. 10A) The PIP2-binding motif (SEQ ID NO: 12) on the ? hosphorylation ? ite ? omain (PSD) of MARCKS. FIG. 10A discloses the MH domain as SEQ ID NO: 86). (FIG. 10B) Biolayer interferometry analysis of the binding of the MPS peptide to biotin-labeled PIP2. (FIG. 10C) PIP3 levels in IPF fibroblast cells with PBS or MPS treatment. * p<0.05 versus PBS (n=3).
Real-time binding of the peptide mimicking the phosphorylation site domain of MARCKS (MPS peptide, amino acids 151 to 175 from the wild-type MARCKS protein) to biotin-labeled PIP2 was evaluated using biolayer interferometry (BLI) on an Octet RED96 system (ForteBio) following the manufacturer's instructions. Briefly, the ligand, PIP2 labeled with biotin at the sn-1 position (1000 nM in ddH2O), was immobilized on Super Streptavidin (SSA) biosensors for 10 minutes. A binding assay was performed with the MPS analyte at various concentrations from 0 to 1000 nM in ddH2O. Association and dissociation were monitored for 5 minutes. Assays were performed at 24° C. Data were analyzed using Octet Data Analysis Software 7.0 (ForteBio).

[2] = test system: LG704 oncospheres; test: RNA-seq of LG704 oncospheres; type: cell-based, human; conditions: 50 μM
Procedure: These genes were then analyzed with GSEA to determine which functional pathways were most affected by MARCKS. Right, Heat map of cancer-stemness markers associated with MARCKS activity.
Targeting the MARCKS PSD is associated with inhibition of stem-like cell properties. In light of the importance of the PSD in the functionality of MARCKS protein, Applicant designed a 25-mer MPS peptide to mimic the MARCKS phosphorylation site domain (PSD). […] Applicant's initial studies have shown that elevation of phospho-MARCKS in lung cancer spheres acted in parallel with increased stemness markers, such as CD133, Oct3/4, SOX2 and Nanog (data not included). The oncospheres were derived from high MARCKS-expressing lung cancer cell lines (H1975 and CL1-5) and primary lung cancer cells (LG704 and LC3: pleural effusion cells isolated from patients with advanced stage) in non-adherent serum-free culture conditions as described previously^30-32. Flow cytometry confirmed that ˜80% of LG704 oncosphere cells are CD133-positive, a major lung CSCs marker. […] Through a comparison of transcriptome profiling between PBS- and MPS-treated LG704 oncospheres by RNA-seq, Applicant identified a total of 352 coding genes altered by MARCKS inhibition (FIG. 15, left). […] The sphere-forming ability was assessed by counting the number and size of tumor spheres (oncospheres) under a microscope. […]

[3] = test system: phospho-MARCKS, phospho-AKT and α-SMA; test: Western blot in lung fibroblast cells isolated from bleomycin-treated mice; type: cell-based; conditions: 100 μM, 48 hours, fibroblasts from bleomycin-treated mice
Procedure: FIGS. 7A-7B: (FIG. 7A) Western blots analysis of phospho-MARCKS, phospho-AKT and α-SMA expression in lung fibroblast cells isolated from saline- or bleomycin-treated mice after 48 hours of treatment with control or MPS peptides (100 μM). (FIG. 7B) Effect of MPS peptide on cell viability of lung fibroblasts isolated from saline- (mFb-Saline) or bleomycin-treated (mFb-Bleomycin) mice (n=4; *, p<0.05).
MPS peptide potentially serves as an antifibrotic agent in bleomycin-induced pulmonary fibrosis. Bleomycin remains the standard agent for induction of experimental pulmonary fibrosis in animals^23. Thus, 8-week-old female C57BL/6J mice received saline or bleomycin intratracheally (33 μg in […] of saline) as previously described^23. Lung specimens from bleomycin- or saline-treated mice were collected and subjected to immunofluorescence staining. […] Next, lung fibroblast cells isolated from saline- or bleomycin-treated mice (two mice fibroblast cell lines were gifts from Dr. Sem H. Phan, University of Michigan School of Medicine, MI) were incubated with either 100 μM control or MPS peptide for 48 hours. […] The feasibility of the MPS peptide as an antifibrotic agent in a bleomycin-induced pulmonary fibrosis was tested. […] Saline- and bleomycin-exposed mice then were treated with either PBS or MPS peptide (28 mg/kg) intraperitoneally every other day. To ascertain the therapeutic effect of MPS peptide on pulmonary fibrosis, MPS was administered intraperitoneally during the “fibrotic” phase of the model. […]
Western blot analyses and the preparations of whole-cell lysates have been previously described^14, 16, 27 For whole cell lysates, cells were lysed in a lysis buffer (50 mM Tris-HCl (pH 7.4), 1% Triton X-100, 10% glycerol, 150 mM NaCl, 1 mM EDTA, 20 μg/ml leupeptin, 1 mM PMSF and 20 μg/ml aprotinin) and separated by SDS-PAGE. […] The cells were mounted onto slides and visualized using fluorescence microscopy (model Axiovert 100; Carl Zeiss, Oberkochen, Germany) or a Zeiss LSM510 laser-scanning confocal microscope image system.

**Q.** For KKKKKRFSFKKSFKLSGFSFKKNKK [MPS peptide], which Kd [1] is on record?
**A.** 17.6 nM

**Q.** What about the “cancer stemness genes (ABCC8, CDH5, PROM1 (CD133), ALDH1L1, FGFR2)” value [2] of the same sequence?
**A.** decreased

**Q.** What about the phospho-AKT expression [3] of the same sequence?
**A.** decrease

**Q.** What about the phospho-MARCKS expression [3] of the same sequence?
**A.** decrease

**Q.** What about the α-SMA expression [3] of the same sequence?
**A.** decrease
